According to publication PMC8557901 (Microbiology Spectrum, 2021):

Columns and labels:
[1] = tested on: P. falciparum F32-ART5 and F32-TEM; assay: Recrudescence assay F32-ART5 versus F32-TEM; type: cell-based, Plasmodium falciparum; details: 48 h drug exposure; M1 2.5 and 10 μM; artemisinin 18 μM
Description: The Plasmodium falciparum artemisinin-resistant strain F32-ART5 and its twin artemisinin-sensitive line F32-TEM ([30], [31]) were cultivated at 37°C with 5% CO2 in human red blood cells (EFS [French Blood Bank]) diluted to 2% hematocrit in RPMI 1640 medium supplemented with 5% human serum (EFS) as previously reported ([47]).
A recrudescence assay was performed to evaluate the ability of the F32-ART5 parasite line to survive drug exposure in comparison to that of the F32-TEM parasite line ([30], [31]) in order to evaluate the risk of cross-resistance between artemisinin and M1. D-Sorbitol-synchronized ring-stage parasites at 3% parasitemia (2% hematocrit) were exposed to the drug for 48 h. After drug exposure, parasite cultures were washed with RPMI 1640 medium and replaced in normal drug-free culture conditions. The time to parasite recrudescence was determined as the time required to reach initial parasitemia. […] Each experiment, performed in parallel for F32-ART5 and F32-TEM cultivated under the same conditions to generate paired results, was carried out at least three times independently and data statistically analyzed.
A statistical analysis (log-rank test) was carried out on data from the recrudescence assay and the QSA using a Kaplan-Meier survival analysis considering censored data. The final event was defined as the time necessary for cultures to reach initial parasitemia. […]

[2] = MTT cell viability assay, human primary hepatocytes; type: cell-based
Description: (§1) Primary human hepatocytes were isolated from liver segments obtained from adult patients undergoing partial hepatectomy (Service de Chirurgie Digestive, Hépato-Bilio Pancréatique, Hôpital Pitié Salpêtrière, Paris, France). Primary simian hepatocytes were isolated from liver segments collected from healthy Macaca fascicularis monkeys from CEA, Fontenay aux Roses, France. All hepatocytes were obtained using collagenase perfusion as previously described ([40]). Simian hepatocytes were immediately cryopreserved with a Nicool-Freezal controlled rate freezer (Air Liquide Santé, Marne la Vallée, France) and then used when needed after fast thawing at 37°C. Primary murine hepatocytes were isolated from liver segments collected from BALB/c mice. Human and murine hepatocytes were used directly after their isolation. Cells were seeded in 96-well plates (Falcon; Becton Dickinson Labware Europe, France) coated with collagen I (BD Bioscience, USA) at a density of 80,000 cells per well. […]
(§2) The toxicity of M1 toward primary hepatocytes and HepG2-CD81 cells was evaluated through the MTT {[3-(4,5-dimethyl-2-thiazolyl)-2,5-diphenyl-2H-tetrazolium bromide]} test ([42]). […] Then, MTT was replaced by a mixture of DMSO-ethanol (1:1) to dissolve formazan crystals and the absorbance was read at 540 nm on a FlexStation plate reader.

[3] = MTT cell viability assay, simian primary hepatocytes; type: cell-based; details: Macaca fascicularis (cynomolgus monkey), primary hepatocytes (cryopreserved)
Description: as §1, §2

[4] = tested on: P. falciparum strain NF54 gametocytes; assay: In vitro gametocyte induction and development assays; type: cell-based, Plasmodium falciparum
Description: To produce gametocytes, P. falciparum strain NF54 was cultured in vitro as described by Trager and Jensen ([46]) with minor modifications. Briefly, parasites were maintained in human type O-positive red blood cells (RBC) at 5% hematocrit (HCT) in RPMI 1640 medium supplemented with 10% heat-inactivated human serum, 10 mM hypoxanthine, 20 μg/ml gentamicin, The cultures were maintained at 37°C in a standard gas mixture of 5% O2, 5% CO2, 90% N2. Synchronous production of gametocytes was achieved as previously described ([47]). Briefly, asexual parasite cultures were synchronized by purifying schizonts with MACS cell separation columns (Miltenyi Biotec) and using them to reinvade erythrocytes. When parasitemia reached 10 to 15% rings, culture medium was supplemented with 50 mM N-acetylglucosamine (NAG; Sigma-Aldrich) for 5 days in order to clear residual asexual parasites and obtain a virtually pure gametocyte culture.
To assess the effect of gamhepathiopine on the induction of gametocytes, M1 (10 μM) was added at the same moment with NAG. For gametocyte development, gamhepathiopine was added 2 days after the addition of NAG. Medium replacement was performed every day. All cultures were prepared in parallel with controls corresponding to cultures that were treated with 0.1% DMSO. The percentages of each stage of gametocytes in cultures were assessed by microscopy of Giemsa-stained thin blood smears.
Figure S2. Protocol of in vitro gametocytocidal activity assays (NAG = N-acetylglucosamine). Gametocytes stages: I, II, III, IV and V. In blue: M1 effect on gametocyte induction: M1 (10 µM) added at D0 on asexual stage before induction with NAG (control= NAG+ DMSO). In green: M1 effect on gametocyte development: M1 (10 µM) added at D3 after induction (Control= DMSO). In red: M1 effect on exflagellation of mature male gametocytes on D10 (Control DMSO)

Plasmodium berghei = tested on: Plasmodium berghei; design: method as in PMID 25791675; details: 2.5 mg/kg twice a day for 3 days; untreated group 9%; cited from earlier work

**Q.** What does the source list for Cc1ccc(-c2cc3nc(NC(C)(C)C)[nH]c(=O)c3s2)cc1 [Metabolite M1, 2-(tert-Butylamino)-6-(p-tolyl)thieno[3,2-d]pyrimidin-4(3H)-one]?
**A.** recrudescence of F32-ART5 versus F32-TEM (cross-resistance with artemisinin) [1]: no cross-resistance with artemisinin; CC50 at 5 days [2]: > 60 µM; CC50 at 8 days [3]: > 60 µM; stage III gametocytes mean value ([4]; 10 μM added after induction, day 6 postinduction, control 1.29): 0.48; stage V gametocytes mean value ([4]; 10 μM added after induction, day 10 postinduction, control 0.70): 0.26; reduction of the conversion rate of asexual parasites into gametocytes ([4]; 10 μM added at D0 with NAG, renewed every day): 87.8%; parasitemia at day 4 (Plasmodium berghei): 4.9%
